PMC5218480 (PLoS ONE, 2017)

Tested on: MV-4-11 cells
Test: Gene expression microarray analysis (Affymetrix PrimeView) and GSEA
Assay type: cell-based, human
Parameters: RFU PODN (11730768_x_at) / Fold change /veh PODN (11730768_x_at) / RFU LINC00158 (11744669_a_at) / Fold change /veh LINC00158 (11744669_a_at) / RFU DUSP10 (11751237_a_at) / Fold change /veh DUSP10 (11751237_a_at) / RFU ID3 (11757404_x_at) / Fold change /veh ID3 (11757404_x_at) / RFU PLEKHG5 (11737974_s_at) / Fold change /veh PLEKHG5 (11737974_s_at) / RFU LRRC4B (11730491_at) / Fold change /veh LRRC4B (11730491_at) / RFU GIMAP4 (11747438_a_at) / Fold change /veh GIMAP4 (11747438_a_at) / RFU KRT8 (11758183_x_at) / Fold change /veh KRT8 (11758183_x_at) / RFU CNN1 (11734310_a_at) / Fold change /veh CNN1 (11734310_a_at) / RFU VPS37D (11726825_at) / Fold change /veh VPS37D (11726825_at) / RFU C10orf10 (11716522_x_at) / Fold change /veh C10orf10 (11716522_x_at) / RFU KIR2DL2 /// KIR2DL4 /// KIR2DL5A /// KIR2DL5B /// KIR2DS1 /// KIR2DS2 /// KIR2DS3 /// KIR2DS4 /// KIR3DL3 /// KIR3DL3 /// KIR3DS1 (11738374_at) / Fold change /veh KIR2DL2 /// KIR2DL4 /// KIR2DL5A /// KIR2DL5B /// KIR2DS1 /// KIR2DS2 /// KIR2DS3 /// KIR2DS4 /// KIR3DL3 /// KIR3DL3 /// KIR3DS1 (11738374_at) / RFU C1QL1 (11718748_at) / Fold change /veh C1QL1 (11718748_at) / RFU TMPRSS4 (11747572_a_at) / Fold change /veh TMPRSS4 (11747572_a_at) / RFU HAMP (11756126_x_at) / Fold change /veh HAMP (11756126_x_at) / RFU RNFT2 (11725882_a_at) / Fold change /veh RNFT2 (11725882_a_at) / RFU NR4A2 (11747474_a_at) / Fold change /veh NR4A2 (11747474_a_at) / RFU ABCC12 (11746883_a_at) / Fold change /veh ABCC12 (11746883_a_at) / RFU TMEM136 (11760407_x_at) / Fold change /veh TMEM136 (11760407_x_at) / RFU CLDN22 /// WWC2 (11732394_at) / Fold change /veh CLDN22 /// WWC2 (11732394_at) / RFU HLA-DPB1 (11760878_x_at) / Fold change /veh HLA-DPB1 (11760878_x_at) / RFU SPINT1 (11716480_a_at) / Fold change /veh SPINT1 (11716480_a_at) / RFU GAP43 (11754022_s_at) / Fold change /veh GAP43 (11754022_s_at) / RFU A4GNT (11735810_at) / Fold change /veh A4GNT (11735810_at) / RFU PRB3 (11715151_x_at) / Fold change /veh PRB3 (11715151_x_at) / RFU TUBB4B (11761932_at) / Fold change /veh TUBB4B (11761932_at) / RFU CAPN14 (11732068_a_at) / Fold change /veh CAPN14 (11732068_a_at) / RFU TMCC2 (11721928_a_at) / Fold change /veh TMCC2 (11721928_a_at) / RFU IRGQ (11745062_a_at) / Fold change /veh IRGQ (11745062_a_at) / RFU FAM174B (11720279_a_at) / Fold change /veh FAM174B (11720279_a_at) / RFU TMPRSS4 (11748680_a_at) / Fold change /veh TMPRSS4 (11748680_a_at) / RFU FAM212B (11763350_a_at) / Fold change /veh FAM212B (11763350_a_at) / RFU PLEKHG5 (11743358_a_at) / Fold change /veh PLEKHG5 (11743358_a_at) / RFU ZSCAN30 (11745921_a_at) / Fold change /veh ZSCAN30 (11745921_a_at) / RFU CMKLR1 (11741424_a_at) / Fold change /veh CMKLR1 (11741424_a_at) / RFU LOC101060620 /// MAPK8IP1 (11723275_at) / Fold change /veh LOC101060620 /// MAPK8IP1 (11723275_at) / RFU SPTSSB (11747773_x_at) / Fold change /veh SPTSSB (11747773_x_at) / RFU PRSS12 (11739890_at) / Fold change /veh PRSS12 (11739890_at) / RFU BIN1 (11741810_x_at) / Fold change /veh BIN1 (11741810_x_at) / RFU WNT11 (11732464_a_at) / Fold change /veh WNT11 (11732464_a_at) / RFU C10orf10 (11716521_a_at) / Fold change /veh C10orf10 (11716521_a_at) / RFU C5orf56 (11738089_at) / Fold change /veh C5orf56 (11738089_at) / RFU CYB561 (11721691_x_at) / Fold change /veh CYB561 (11721691_x_at) / RFU ANKRD19P (11752326_a_at) / Fold change /veh ANKRD19P (11752326_a_at) / RFU OR2T12 /// OR2T33 /// OR2T8 (11738714_s_at) / Fold change /veh OR2T12 /// OR2T33 /// OR2T8 (11738714_s_at) / RFU VCAN (11748164_a_at) / Fold change /veh VCAN (11748164_a_at) / RFU JSRP1 (11732532_at) / Fold change /veh JSRP1 (11732532_at) / RFU KRTAP10-11 (11738290_x_at) / Fold change /veh KRTAP10-11 (11738290_x_at) / RFU MYO3A (11730013_a_at) / Fold change /veh MYO3A (11730013_a_at) / RFU EBF3 (11725865_a_at) / Fold change /veh EBF3 (11725865_a_at) / RFU CAMK2N1 (11719241_x_at) / Fold change /veh CAMK2N1 (11719241_x_at) / RFU C5orf56 (11738088_a_at) / Fold change /veh C5orf56 (11738088_a_at) / RFU OLFML3 (11715873_a_at) / Fold change /veh OLFML3 (11715873_a_at) / RFU LOC100653217 /// NTM (11731650_a_at) / Fold change /veh LOC100653217 /// NTM (11731650_a_at) / RFU MAPK11 (11762145_a_at) / Fold change /veh MAPK11 (11762145_a_at) / RFU FIZ1 (11724087_x_at) / Fold change /veh FIZ1 (11724087_x_at) / RFU OASL (11726364_x_at) / Fold change /veh OASL (11726364_x_at) / RFU SOX15 (11748057_x_at) / Fold change /veh SOX15 (11748057_x_at) / RFU CD79A (11719716_a_at) / Fold change /veh CD79A (11719716_a_at) / RFU HIST1H1D (11736915_at) / Fold change /veh HIST1H1D (11736915_at) / RFU CASKIN2 (11723855_a_at) / Fold change /veh CASKIN2 (11723855_a_at) / RFU LOC730098 (11760151_x_at) / Fold change /veh LOC730098 (11760151_x_at) / RFU OR4N2 (11742367_at) / Fold change /veh OR4N2 (11742367_at) / RFU PRRT2 (11749266_a_at) / Fold change /veh PRRT2 (11749266_a_at) / RFU SNX32 (11753110_a_at) / Fold change /veh SNX32 (11753110_a_at) / RFU CDHR5 (11726645_a_at) / Fold change /veh CDHR5 (11726645_a_at) / RFU RCAN1 (11760418_a_at) / Fold change /veh RCAN1 (11760418_a_at) / RFU FAM167A (11723789_a_at) / Fold change /veh FAM167A (11723789_a_at) / RFU FAM26E (11764081_at) / Fold change /veh FAM26E (11764081_at) / RFU ISYNA1 (11749810_s_at) / Fold change /veh ISYNA1 (11749810_s_at) / RFU ACY1 (11761880_at) / Fold change /veh ACY1 (11761880_at) / RFU 11764098_at / Fold change /veh 11764098_at / RFU SAMD14 (11745864_x_at) / Fold change /veh SAMD14 (11745864_x_at) / RFU NPB (11741838_a_at) / Fold change /veh NPB (11741838_a_at) / RFU TMPRSS6 (11731388_a_at) / Fold change /veh TMPRSS6 (11731388_a_at) / RFU KRTAP10-2 (11738614_at) / Fold change /veh KRTAP10-2 (11738614_at) / RFU ARHGAP8 /// PRR5-ARHGAP8 (11727945_x_at) / Fold change /veh ARHGAP8 /// PRR5-ARHGAP8 (11727945_x_at) / RFU KRTAP5-7 /// NADSYN1 (11734609_at) / Fold change /veh KRTAP5-7 /// NADSYN1 (11734609_at) / RFU RASL12 (11751679_a_at) / Fold change /veh RASL12 (11751679_a_at) / RFU CDKN2B (11736163_a_at) / Fold change /veh CDKN2B (11736163_a_at) / RFU PRF1 (11729649_at) / Fold change /veh PRF1 (11729649_at) / RFU, ZNF638 /// ZNF638-IT1 / Fold change vs veh, ZNF638 /// ZNF638-IT1 / RFU, PANK3 / Fold change vs veh, PANK3 / RFU, SH3YL1 / Fold change vs veh, SH3YL1 / RFU, ZEB2 / Fold change vs veh, ZEB2 / RFU, NRIP1 / Fold change vs veh, NRIP1 / RFU, PTTG1IP / Fold change vs veh, PTTG1IP / RFU, CAPN2 / Fold change vs veh, CAPN2 / RFU, MED14 / Fold change vs veh, MED14 / RFU, SNORA58 / Fold change vs veh, SNORA58 / RFU, C1orf63 / Fold change vs veh, C1orf63 / RFU, LRRFIP1 / Fold change vs veh, LRRFIP1 / RFU, NDUFAF7 / Fold change vs veh, NDUFAF7 / RFU, SLC12A2 / Fold change vs veh, SLC12A2 / RFU, IBTK / Fold change vs veh, IBTK / RFU, ESF1 / Fold change vs veh, ESF1 / Fold change vs veh, TMEM50B / RFU, TAOK1 / Fold change vs veh, TAOK1 / RFU, ACBD3 / Fold change vs veh, ACBD3 / RFU, TMA16 / Fold change vs veh, TMA16 / RFU, RWDD3 / Fold change vs veh, RWDD3 / RFU, BCAT1 / Fold change vs veh, BCAT1 / RFU, EDEM3 / Fold change vs veh, EDEM3 / RFU, TMEM33 / Fold change vs veh, TMEM33 / RFU, WDR75 / Fold change vs veh, WDR75 / RFU, AHCTF1 / Fold change vs veh, AHCTF1 / RFU, TFRC / Fold change vs veh, TFRC / RFU, ZDHHC17 / Fold change vs veh, ZDHHC17 / RFU, NOM1 / Fold change vs veh, NOM1 / RFU, ARL8B / Fold change vs veh, ARL8B / RFU, ZBTB11 / Fold change vs veh, ZBTB11 / RFU, TAMM41 / Fold change vs veh, TAMM41 / RFU, KIAA1704 /// LOC100996395 / Fold change vs veh, KIAA1704 /// LOC100996395 / RFU, ING1 / Fold change vs veh, ING1 / RFU, TRMT61B / Fold change vs veh, TRMT61B / RFU, FUBP3 / Fold change vs veh, FUBP3 / RFU, TP53 / Fold change vs veh, TP53 / RFU, TNKS2 / Fold change vs veh, TNKS2 / RFU, ZFP14 / Fold change vs veh, ZFP14 / RFU, ACTR2 / Fold change vs veh, ACTR2 / RFU, PPP3R1 / Fold change vs veh, PPP3R1 / RFU, PIK3R1 / Fold change vs veh, PIK3R1 / RFU, HNRNPA1 / Fold change vs veh, HNRNPA1 / RFU, RNF170 / Fold change vs veh, RNF170 / RFU, ZNF28 / Fold change vs veh, ZNF28 / RFU, RNGTT / Fold change vs veh, RNGTT / RFU, OGT / Fold change vs veh, OGT / RFU, BRD1 / Fold change vs veh, BRD1 / RFU, MARS / Fold change vs veh, MARS / RFU, ZNF655 / Fold change vs veh, ZNF655 / RFU, FAHD1 / Fold change vs veh, FAHD1 / RFU, BDP1 / Fold change vs veh, BDP1 / RFU, LRRCC1 / Fold change vs veh, LRRCC1 / RFU, ARID1A / Fold change vs veh, ARID1A / RFU, ZNF146 / Fold change vs veh, ZNF146 / RFU, ZNF330 / Fold change vs veh, ZNF330 / RFU, GPN3 / Fold change vs veh, GPN3 / RFU, C9orf123 / Fold change vs veh, C9orf123 / RFU, N4BP2L2 / Fold change vs veh, N4BP2L2 / RFU, ARFIP1 / Fold change vs veh, ARFIP1 / RFU, FAM179B / Fold change vs veh, FAM179B / RFU, BCL10 / Fold change vs veh, BCL10 / RFU, UHRF1BP1L / Fold change vs veh, UHRF1BP1L / RFU, BET1 / Fold change vs veh, BET1 / RFU, CNOT2 / Fold change vs veh, CNOT2 / RFU, ZNF268 / Fold change vs veh, ZNF268 / Fold change vs veh, ZNF507 / RFU, DGCR2 / Fold change vs veh, DGCR2 / RFU, WDSUB1 / Fold change vs veh, WDSUB1 / Fold change vs veh, HSP90B1 /// MIR3652 / RFU, ADSS / Fold change vs veh, ADSS / RFU, GK / Fold change vs veh, GK / RFU, ZNF148 / Fold change vs veh, ZNF148 / RFU, TAF9 / Fold change vs veh, TAF9 / RFU, SLC1A5 / Fold change vs veh, SLC1A5 / RFU, SLMO2 / Fold change vs veh, SLMO2 / RFU, ABCC4 / Fold change vs veh, ABCC4 / RFU, LOC101060439 /// RAP1B / Fold change vs veh, LOC101060439 /// RAP1B / RFU, RFX7 / Fold change vs veh, RFX7 / RFU, GTPBP10 / Fold change vs veh, GTPBP10 / RFU, CNEP1R1 / Fold change vs veh, CNEP1R1 / RFU, BIVM-ERCC5 /// ERCC5 / Fold change vs veh, BIVM-ERCC5 /// ERCC5 / RFU, ILF3 / Fold change vs veh, ILF3 / RFU 11762660_at / Fold change /veh 11762660_at / RFU VCAN (11757783_s_at) / Fold change /veh VCAN (11757783_s_at) / RFU DDX43 (11728927_at) / Fold change /veh DDX43 (11728927_at) / RFU KRT8 (11758188_x_at) / Fold change /veh KRT8 (11758188_x_at) / RFU NKD1 (11759106_at) / Fold change /veh NKD1 (11759106_at) / RFU SRD5A1 (11742802_a_at) / Fold change /veh SRD5A1 (11742802_a_at) / RFU TPSAB1 /// TPSB2 (11721975_s_at) / Fold change /veh TPSAB1 /// TPSB2 (11721975_s_at) / RFU GSTM3 (11746129_a_at) / Fold change /veh GSTM3 (11746129_a_at) / RFU IL23R (11737362_x_at) / Fold change /veh IL23R (11737362_x_at) / RFU TMEM51 (11727254_a_at) / Fold change /veh TMEM51 (11727254_a_at) / RFU PIWIL2 (11732686_x_at) / Fold change /veh PIWIL2 (11732686_x_at) / RFU ORM1 (11744905_x_at) / Fold change /veh ORM1 (11744905_x_at) / RFU CCDC152 (11743942_at) / Fold change /veh CCDC152 (11743942_at) / RFU ECM1 (11717891_a_at) / Fold change /veh ECM1 (11717891_a_at) / RFU IL23R (11748794_a_at) / Fold change /veh IL23R (11748794_a_at) / RFU TNFAIP8L3 (11732012_x_at) / Fold change /veh TNFAIP8L3 (11732012_x_at) / RFU MBOAT4 (11741988_at) / Fold change /veh MBOAT4 (11741988_at) / RFU 11764193_at / Fold change /veh 11764193_at / RFU TMEM53 (11763286_at) / Fold change /veh TMEM53 (11763286_at) / RFU MAGEB2 (11727129_at) / Fold change /veh MAGEB2 (11727129_at) / RFU TMEM200A (11744735_a_at) / Fold change /veh TMEM200A (11744735_a_at) / RFU CCDC152 (11751479_a_at) / Fold change /veh CCDC152 (11751479_a_at) / RFU FAM211A (11726209_a_at) / Fold change /veh FAM211A (11726209_a_at) / RFU RGS16 (11746705_a_at) / Fold change /veh RGS16 (11746705_a_at) / RFU VCAN (11755009_s_at) / Fold change /veh VCAN (11755009_s_at) / RFU RHOB (11743442_s_at) / Fold change /veh RHOB (11743442_s_at) / RFU RGS16 (11720943_a_at) / Fold change /veh RGS16 (11720943_a_at) / RFU RGS16 (11720944_at) / Fold change /veh RGS16 (11720944_at) / RFU, VPS4B / Fold change vs veh, VPS4B / RFU, CREB1 / Fold change vs veh, CREB1 / RFU, DNAJC13 / Fold change vs veh, DNAJC13 / RFU, GNAQ / Fold change vs veh, GNAQ / RFU, CDK5R1 / Fold change vs veh, CDK5R1 / RFU, ZRANB3 / Fold change vs veh, ZRANB3 / RFU, CUL4A / Fold change vs veh, CUL4A / RFU, CCNY / Fold change vs veh, CCNY / RFU, UFL1 / Fold change vs veh, UFL1 / RFU, COG3 / Fold change vs veh, COG3 / RFU, DIAPH2 / Fold change vs veh, DIAPH2 / RFU, SKA2 / Fold change vs veh, SKA2 / RFU, AFF3 / Fold change vs veh, AFF3 / RFU, LMF1 / Fold change vs veh, LMF1 / RFU, IPO11 / Fold change vs veh, IPO11 / RFU, DFFB / Fold change vs veh, DFFB / RFU, FOXP1 / Fold change vs veh, FOXP1 / RFU, CARD8 / Fold change vs veh, CARD8 / RFU, STRN3 / Fold change vs veh, STRN3 / RFU, ADK / Fold change vs veh, ADK / RFU, RASSF2 / Fold change vs veh, RASSF2 / RFU, WIPF1 / Fold change vs veh, WIPF1 / RFU, LARP1B / Fold change vs veh, LARP1B / RFU, RASA1 / Fold change vs veh, RASA1 / RFU, RB1 / Fold change vs veh, RB1 / RFU, PPFIA1 / Fold change vs veh, PPFIA1 / RFU, MAT2A / Fold change vs veh, MAT2A / RFU, CCT5 / Fold change vs veh, CCT5 / RFU, WDR92 / Fold change vs veh, WDR92 / RFU, CUX1 / Fold change vs veh, CUX1 / RFU, TTC7A / Fold change vs veh, TTC7A / RFU, TMEM135 / Fold change vs veh, TMEM135 / RFU, DEPTOR / Fold change vs veh, DEPTOR / RFU, CPM / Fold change vs veh, CPM / RFU, DNAJB6 / Fold change vs veh, DNAJB6 / RFU, CACNA2D3 / Fold change vs veh, CACNA2D3 / RFU, DTX4 / Fold change vs veh, DTX4 / RFU, TFCP2 / Fold change vs veh, TFCP2 / RFU, GMCL1 /// GMCL1P1 / Fold change vs veh, GMCL1 /// GMCL1P1 / RFU, AEBP2 / Fold change vs veh, AEBP2 / RFU, SNHG1 /// SNORD22 /// SNORD25 /// SNORD26 /// SNORD27 /// SNORD28 /// SNORD29 /// SNORD31 / Fold change vs veh, SNHG1 /// SNORD22 /// SNORD25 /// SNORD26 /// SNORD27 /// SNORD28 /// SNORD29 /// SNORD31 / Fold change (Aza/veh), C12orf56 (ProbeSet 11735607_a_at) / Fold change (ACY-1035/veh), C12orf56 (ProbeSet 11735607_a_at) / Fold change (Aza/veh), FGFR1OP (ProbeSet 11751329_s_at) / Fold change (ACY-1035/veh), FGFR1OP (ProbeSet 11751329_s_at) / Fold change (Aza/veh), VPS36 (ProbeSet 11739960_a_at) / Fold change (ACY-1035/veh), VPS36 (ProbeSet 11739960_a_at) / RFU SYPL1 (11715823_x_at) / Fold change /veh SYPL1 (11715823_x_at) / RFU IGFBP7 (11715501_s_at) / Fold change /veh IGFBP7 (11715501_s_at) / RFU REEP3 (11722064_at) / Fold change /veh REEP3 (11722064_at) / RFU IGLL1 (11728026_x_at) / Fold change /veh IGLL1 (11728026_x_at): dose or concentration left out as unconfirmed
Conditions: ProbeSet 11748670_a_at; LIST B

Nc1ncn([C@@H]2O[C@H](CO)[C@@H](O)[C@H]2O)c(=O)n1 [azacitidine]
Fold change vs veh, PIK3R1: 1.03
